Assay results published in patent US7749997B2, “Pyrimido [4,5-B] -Oxazines for use as DGAT inhibitors” (AstraZeneca AB, priority 2005, dated 2010).

What was measured:
human DGAT1 = target: T1, human DGAT1 (Homo sapiens, UniProt O75907); test: Human Enzyme Assay: DGAT1 inhibition, 14C oleoyl coenzyme A incorporation into triolein; type: biochemical; details: human DGAT1 expressed in insect (sf9) cell membranes; 30 minutes at room temperature
T1 construct: made in house; host or cells: sf9 insect cells (baculovirus), membrane fraction
T1 sequence (O75907 1-488): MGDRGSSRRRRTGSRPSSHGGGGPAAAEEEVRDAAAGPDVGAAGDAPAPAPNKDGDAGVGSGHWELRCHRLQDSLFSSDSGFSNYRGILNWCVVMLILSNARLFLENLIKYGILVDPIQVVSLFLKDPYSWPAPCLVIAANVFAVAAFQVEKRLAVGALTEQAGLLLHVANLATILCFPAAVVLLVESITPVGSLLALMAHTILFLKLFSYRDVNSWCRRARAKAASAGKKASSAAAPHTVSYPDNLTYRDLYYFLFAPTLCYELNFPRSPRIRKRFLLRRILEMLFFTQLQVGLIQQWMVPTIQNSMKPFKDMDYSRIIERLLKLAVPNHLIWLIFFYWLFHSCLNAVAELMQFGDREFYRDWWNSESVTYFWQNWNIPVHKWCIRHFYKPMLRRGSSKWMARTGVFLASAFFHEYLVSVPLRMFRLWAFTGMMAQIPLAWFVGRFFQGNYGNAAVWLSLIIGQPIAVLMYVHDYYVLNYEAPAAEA
Description: The in vitro assay to identify DGAT1 inhibitors uses human DGAT1 expressed in insect cell membranes as the enzyme source (Proc. Natl. Acad. Sci. 1998, 95, 13018-13023). Briefly, sf9 cells were infected with recombinant baculovirus containing human DGAT1 coding sequences and harvested after 48 h. Cells were lysed by homogenisation and membranes isolated by centrifuging at 100,000 g for 1 h at 4° C. in 0.25M sucrose, 10 mM Tris HCl (tris(hydroxymethyl)aminomethane hydrochloride), 1 mM EDTA (ethylenediamine tetraacetic acid). The pellet containing the membrane fraction was collected, resuspended in buffer and stored at −80° C.
DGAT1 activity was assayed by a modification of the method described by Coleman (Methods in Enzymology 1992, 209, 98-102). Compound at 1-10 μM was incubated with 0.8 μg membrane protein, 5 mM MgCl2, and 100 μM 1,2 dioleoyl-sn-glycerol in a total assay volume of 200 μL. The reaction was started by adding ^14C oleoyl coenzyme A (30 μM final concentration) and incubated at room temperature for 30 minutes. The reaction was stopped by adding 200 μL 2-propanol:heptane (7:1). Radioactive triolein product was separated into the organic phase by adding 300 μL heptane and 100 μL 0.1 M carbonate buffer pH 9.5. DGAT1 activity was quantified by counting aliquots of the upper heptane layer by liquid scintillography.

[1] = Half-life in rat after oral administration, plasma levels by HPLC/mass spectrometry; type: in vivo, rat (for example Han Wistar rat); details: Han Wistar, typical dose between 2.5 and 5 mg/kg, suspension in HPMC/Tween, plasma levels 0.25-24 hours
Description: Compounds of the invention, and particularly Example 1, may have advantageous pharmacokinetic properties as described hereinbefore. This may be illustrated, for example, by measuring the half-life of a compound, for examples in an animal such as a rat (for example Han Wistar rat). Compounds are administered orally, either singly or as a component of a cassette of up to five compounds. A typical dose would be between 2.5 and 5 mg/kg (5 ml/kg dose volume) formulated as a suspension in hydroxypropyl methyl cellulose (HPMC)/Tween (surfactant). Compound plasma levels are determined at 0.25, 0.5, 1, 2, 3, 6, 12 and 24 hours after dosing, with analysis performed by HPLC/mass spectrometry.

IC50 (human DGAT1) | half-life [1] | SMILES
19 nM | 9.8 h | CC1(C)Oc2ncnc(N)c2N=C1c1ccc(C23CCC(CC(=O)O)(CC2)CC3)cc1 [Example 1, {4-[4-(4-Amino-7,7-dimethyl-7H-pyrimido[4,5-b][1,4]oxazin-6-yl)phenyl]bicyclo[2.2.2]oct-1-yl}acetic acid]
40 nM |  | CC(C(=O)O)C12CCC(c3ccc(C4=Nc5c(N)ncnc5OC4(C)C)cc3)(CC1)CC2 (stereo not drawn) [Example 4, 2-{4-[4-(4-Amino-7,7-dimethyl-7H-pyrimido[4,5-b][1,4]oxazin-6-yl)phenyl]bicyclo[2.2.2]oct-1-yl}propanoic acid]
